Literature values in patent US6562363B1, “Bioadhesive compositions and methods for topical administration of active agents” (Noven Pharmaceuticals, Inc., priority 1997, dated 2003).

Legend:
[1] = application to skin or mucous membranes; for Duration of Effect: duration of anesthetic effect; for Peak Effect: time to peak anesthetic effect
[2] = application to skin or mucous membranes

SMILES	Duration of Effect [1] [min]	Peak Effect [1] [min]	Maximum Adult Dose [2] [mg]
CCOC(=O)c1ccc(N)cc1 [Benzocaine]	30 to 60	1	5000
COC(=O)[C@H]1[C@@H](OC(=O)c2ccccc2)C[C@@H]2CC[C@H]1N2C [Cocaine]	–	–	50
CCCCOc1cc(C(=O)NCCN(CC)CC)c2ccccc2n1 [Dibucaine]	120 to 240	<15	25
CCCCOc1ccc(C(=O)CCN2CCCCC2)cc1 [Dyclonine]	<60	<10	100
CCN(CC)CC(=O)Nc1c(C)cccc1C [Lidocaine]	–	–	750
CCCCNc1ccc(C(=O)OCCN(C)C)cc1 [Tetracaine]	30 to 60	3 to 8	50
